Data as given in paper PMC9320114 (Molecules, 2022).
Where two headings read alike, the source gives them in different places.

What was measured:
DdlB = DdlB (Escherichia coli, UniProt P07862); assay: Inhibition of DdlB, colorimetric malachite green method; type: biochemical, bacterial; details: 20 min, read-out: DdlB (RA [%])
Method: Inhibition of Mur enzymes was monitored with the colorimetric malachite green method, which measured orthophosphate formed during reaction. The mixtures with a final volume of 50 µL contained:
DdlB: 50 mM HEPES-NaOH, pH 8.0, 5 mM MgCl2, 6.5 mM (NH4)2SO4, 10 mM KCl, 0.005% Triton X-114, 700 µM D-Ala, 500 µM ATP, purified DdlB, and 50 µM of each compound tested.
All compounds were soluble in the assay mixtures containing 5% DMSO (v/v). After incubation for 15 min (20 min for DdlB) at 37 °C, the enzyme reaction was terminated by addition of Biomol® reagent (100 µL) and absorbance was measured after 5 min at 650 nm (Synergy™ H4 microplate reader; BioTek Instruments, Inc., BioTek Gen5 Data Analysis Software, version 2.9, Santa Clara, CA, USA). All experiments were performed in duplicate.

hMAO-A = molecular target: T1, hMAO-A (Homo sapiens, UniProt P21397); assay: Inhibition of hMAO-A, fluorimetric Amplex Red assay; type: biochemical; details: residual activity at 10 µM
T1 construct: purchased Sigma Aldrich; host or cells: BTI-TN-5B1-4 baculovirus-infected insect cells
T1 sequence (P21397 1-527): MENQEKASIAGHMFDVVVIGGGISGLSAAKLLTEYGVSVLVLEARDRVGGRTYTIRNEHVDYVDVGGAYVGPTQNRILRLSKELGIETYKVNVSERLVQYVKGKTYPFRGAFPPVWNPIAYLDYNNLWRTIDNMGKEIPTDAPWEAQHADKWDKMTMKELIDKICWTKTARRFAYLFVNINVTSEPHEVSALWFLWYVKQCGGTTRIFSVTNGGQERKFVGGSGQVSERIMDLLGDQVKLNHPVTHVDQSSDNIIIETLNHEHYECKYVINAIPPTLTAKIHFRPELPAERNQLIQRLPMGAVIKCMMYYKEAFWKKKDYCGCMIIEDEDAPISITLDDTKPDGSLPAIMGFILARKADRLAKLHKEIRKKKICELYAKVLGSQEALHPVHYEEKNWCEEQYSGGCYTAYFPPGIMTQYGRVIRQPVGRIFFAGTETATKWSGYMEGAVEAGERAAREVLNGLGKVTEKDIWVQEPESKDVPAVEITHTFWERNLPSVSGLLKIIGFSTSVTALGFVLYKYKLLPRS
Method: The effects of the compounds on hMAO-A and hMAO-B were investigated using a fluorimetric assay, following a method previously described in the literature. Recombinant human microsomal hMAO enzymes expressed in BTI-TN-5B1-4 baculovirus-infected insect cells, horseradish peroxidase (HRP, type II, lyophilized powder), and p-tyramine hydrochloride were purchased from Sigma Aldrich. 10-Acetyl-3,7-dihydroxyphenoxazine (Amplex Red reagent) was synthesized as described in the literature.
Briefly, 100 µL of 50 mM sodium phosphate buffer (pH 7.4, 0.05% (v/v) Triton X-114), containing the compounds and hMAO-A or hMAO-B, was incubated for 15 min at 37 °C in a flat-bottomed black 96-well microplate protected from ambient light. After preincubation, the reaction was started by adding final concentrations of 200 µM Amplex Red reagent, 2 U/mL HRP, and 1 mM p-tyramine hydrochloride. Resorufin production was quantified based on the fluorescence produced (λex = 530 nm; λem = 590 nm) at 37 °C over a 20 min period. For the control experiments, DMSO was used instead of appropriate dilutions of the compounds in DMSO. For the determination of blank (b), the enzyme solution was replaced by a phosphate-buffered solution. Initial velocities were calculated from the obtained trend, with each measurement performed in duplicate. Specific fluorescence emission to determine the final results was calculated after subtracting the blank activity (b). Inhibitory potencies were expressed as RAs, and IC50 values were calculated as described in the section “Inhibition of hBChE and mAChE” above.

[1] = molecular target: human butyrylcholinesterase (hBChE) (Homo sapiens, UniProt P06276); assay: biochemical; type: biochemical
Sequence of human butyrylcholinesterase (hBChE) (P06276 29-602): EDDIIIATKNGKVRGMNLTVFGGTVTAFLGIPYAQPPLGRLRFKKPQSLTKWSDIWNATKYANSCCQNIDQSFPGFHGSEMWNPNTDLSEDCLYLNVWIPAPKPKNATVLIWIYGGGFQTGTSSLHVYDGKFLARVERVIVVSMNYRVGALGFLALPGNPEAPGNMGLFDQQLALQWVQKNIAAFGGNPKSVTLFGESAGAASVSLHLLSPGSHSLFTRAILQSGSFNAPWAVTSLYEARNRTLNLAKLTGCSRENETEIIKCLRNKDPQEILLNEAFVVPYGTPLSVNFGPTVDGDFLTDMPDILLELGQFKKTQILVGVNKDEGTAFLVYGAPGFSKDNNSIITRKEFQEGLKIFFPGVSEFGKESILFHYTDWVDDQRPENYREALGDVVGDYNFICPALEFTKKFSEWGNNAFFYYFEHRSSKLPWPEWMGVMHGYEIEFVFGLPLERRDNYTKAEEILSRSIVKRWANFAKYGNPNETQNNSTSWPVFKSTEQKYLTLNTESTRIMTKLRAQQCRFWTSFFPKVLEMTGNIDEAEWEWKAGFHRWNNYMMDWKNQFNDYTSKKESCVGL
Method: (§1) Enzyme solutions were prepared by diluting the concentrated enzyme stock solutions (4.6 mg/mL in 10 mM MES-NaOH buffer, pH 6.5) in a sodium phosphate-buffered solution (0.1 M, pH 8.0). […] The final organic solvent (DMSO) content was always 1% (v/v). Reactions were initiated by adding the substrate to the enzyme and inhibitor, which were preincubated for 5 min. […] To determine the blank value (b), the enzyme solution was replaced by a phosphate-buffered solution. The initial velocity (v) was calculated from the slope of the linear trend obtained, with each measurement performed in triplicate. The inhibitory potencies were expressed as RA=(vi − b)/(vo − b), where vi is the velocity in the presence of the test compounds and vo is the control velocity in the presence of DMSO. Seven different concentrations of each compound were used for the IC50 measurements. IC50 values were obtained by plotting the residual enzyme activities against the applied inhibitor concentrations, fitting the experimental data to the 4-parameter Hill equation:(1) Y=Bottom+(Top−Bottom)/1+10^((LogIC50−X)×Hill Slope) where X is the logarithm of the inhibitor concentration, and Y is the residual activity. GraphPad Prism 8.2.0 (GraphPad Software, San Diego, CA, USA) was used for the fitting procedure.

[2] = molecular target: T2, murine acetylcholinesterase (mAChE) (Mus musculus, UniProt P21836); assay: biochemical; type: biochemical; details: for mAChE RA (%) / remaining activity at 10 µM / RA (mAChE, 10 µM): residual activity at 10 µM; for remaining activity at 10 µM: read-out: mAChE RA (%); for RA (mAChE, 10 µM): Figure 1
T2 sequence (P21836 32-614): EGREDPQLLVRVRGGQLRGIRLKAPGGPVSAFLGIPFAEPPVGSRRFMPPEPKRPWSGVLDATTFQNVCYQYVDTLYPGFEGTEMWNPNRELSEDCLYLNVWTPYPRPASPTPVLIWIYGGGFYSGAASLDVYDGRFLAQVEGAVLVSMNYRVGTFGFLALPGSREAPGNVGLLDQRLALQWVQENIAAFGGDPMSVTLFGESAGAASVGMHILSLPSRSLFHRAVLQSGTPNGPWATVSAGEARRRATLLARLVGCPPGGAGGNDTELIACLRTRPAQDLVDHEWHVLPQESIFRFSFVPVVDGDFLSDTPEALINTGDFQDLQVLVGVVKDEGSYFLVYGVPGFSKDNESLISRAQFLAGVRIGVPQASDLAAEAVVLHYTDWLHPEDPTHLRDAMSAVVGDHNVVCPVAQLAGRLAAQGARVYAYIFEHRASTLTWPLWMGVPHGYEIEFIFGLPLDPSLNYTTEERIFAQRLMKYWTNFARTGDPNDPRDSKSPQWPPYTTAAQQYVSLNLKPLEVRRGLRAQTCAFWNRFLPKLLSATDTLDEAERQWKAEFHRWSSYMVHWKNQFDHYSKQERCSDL
Method: as §1

[3] = Mini Library screen, Table S1, read-out: hMAO-A (RA [%])
[4] = residual activity at 10 µM; Mini Library screen, Table S1
[5] = residual activity at 10 µM; Table 4; read-out: hBChE RA (%)
[6] = residual activity at 10 µM; Table 1; read-out: hBChE RA (%)
[7] = Table 3, read-out: hMAO-A RA (%)

Compound | remaining activity at 50 µM (DdlB) [%] | remaining activity at 10 µM (hMAO-A; [3]) [%] | hBChE RA (%) [1, 4] [%] | mAChE RA (%) ([2]; Mini Library screen, Table S1) | IC50 ([1]; Table 4; IC50 ± SEM; read-out: hBChE IC50) [nM] | remaining activity at 10 µM [1, 5] [%] | remaining activity at 10 µM ([2]; Table 4) [%] | IC50 ([1]; read-out: hBChE IC50; Table 4; IC50 ± SEM) [nM] | IC50 ([1]; Table 1; IC50 ± SEM; read-out: hBChE IC50) [nM] | remaining activity at 10 µM [1, 6] [%] | IC50 ([2]; Mini Library screen, Table S1) [nM] | IC50 ([2]; Table 1, IC50 ± SEM) [nM] | RA (mAChE, 10 µM) [2] [%] | remaining activity at 10 µM ([2]; Table 1) [%] | remaining activity at 10 µM (hMAO-A; [7]) [%] | hMAO-A RA [%] (hMAO-A; Table S3)
CCCCc1nc2ccn(Cc3ccccc3)c(=O)c2n1Cc1ccc(-c2ccccc2-c2nnn[nH]2)cc1 [MS-ML03] | 81 | 83 | 87 | 92 | – | – | – | – | – | – | – | – | – | – | – | –
CCCCc1nc2ccn(CC(=O)N3CCCCC3)c(=O)c2n1Cc1ccc(-c2ccccc2S(=O)(=O)NC(=O)OCc2ccccc2)cc1F [MS-ML05] | 91 | 79 | 91 | 96 | – | – | – | – | – | – | – | – | – | – | – | –
C1=C(c2ccccc2)CCN(CCCCc2c[nH]c3ccccc23)C1 [MS-ML10] | 96 | 75 | – | 64 | 35.6 ± 0.3 | 0 | 64 | – | – | – | – | – | – | – | – | –
Oc1ccc2[nH]cc(CCCCN3CC=C(c4ccccc4)CC3)c2c1 [MS-ML11] | 95 | 31 | – | 82 | – | 0 | 82 | 78.8 ± 10.3 | – | – | – | – | – | – | – | –
CCCCCCN(Cc1ccc(C#Cc2ccc(CCCC)cc2)cc1)c1ccc(O)c(C(=O)O)c1 [MS-ML24] | 116 | 57 | 60 | – | – | – | – | – | 949 ± 46 | 9 | 414 ± 40 | 294 ± 25 | 1 | 1 | – | –
CCCCCCN(Cc1ccc(C#Cc2ccc(CCCC)cc2)cc1)C(=O)c1ccc(O)c(C(=O)O)c1 [MS-ML25] | 114 | 73 | 108 | – | – | – | – | – | – | 55 | 369 ± 55 | 485 ± 79 | 3 | 3 | – | –
CCCCCCN(Cc1ccc(C#Cc2ccc(CCCC)cc2)cc1)c1ccc(F)c(C(=O)O)c1 [MS-ML26] | 114 | 60 | 68 | – | – | – | – | – | – | 57 | 359 ± 39 | 275 ± 60 | 8 | 8 | – | –
O=C(OC[C@H]1CCCN1c1ccnc2ncnn12)c1ccc(Oc2ccccc2)nc1 [MS-ML31] | 98 | 78 | 84 | 89 | – | – | – | – | – | – | – | – | – | – | 98 | 98
O=C(Nc1ccc(Oc2ccncc2)cc1)Nc1cc(C(F)(F)F)ccc1-n1cncn1 [MS-ML80] | 94 | 82 | 73 | 95 | – | – | – | – | – | – | – | – | – | – | 78 | –
